ChEMBL document CHEMBL1201862, “PubChem BioAssay data set” (2004)
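Method: 48-hour compound exposure of cells in 96-well plates, five concentrations, linear interpolation of endpoints. GI50: concentration for 50% inhibition of growth.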 Calls of active or inactive are those of the source. Rule as the data show it: active = GI50 up to about 1.1 µM and inactive = higher.

Key:
Test in all cases: NCI anticancer screen, dose series, 48 h
BT-549 = tested on: BT-549
M19-MEL = tested on: M19-MEL
LXFL 529 = tested on: LXFL 529
DMS-114 = tested on: DMS-114
DMS-273 = tested on: DMS-273
KM-20L2 = tested on: KM-20L2
SNB-78 = tested on: SNB-78
XF498 = tested on: XF498

Row | SMILES | GI50 (BT-549) | GI50 (M19-MEL) | GI50 (LXFL 529) | also measured
1 | Fc1ccc(F)c(/C=N/C23CC4CC(CC(C4)C2)C3)c1 | > 10 µM (inactive) |  |  | 
2 | CSc1nc(NC(C)C)c2c(n1)Sc1nc3ccccc3n1N=C2 | 18.7 µM (inactive) |  |  | 
3 | CCOC(=O)/C(=C\c1ccc(N(C)C)cc1)S(=O)(=O)C(F)(F)C(F)(F)C(F)(F)C(F)(F)F | 52.6 µM (inactive) |  |  | 
4 | CC(C)=c1sc(=C(C)C)c2c1=NC(C)(C)N=2 | 67.3 µM (inactive) |  |  | 
5 | CCc1nn(S(=O)(=O)c2ccc(C)cc2)c2c1CS(=O)(=O)CC2 | > 100 µM (inactive) |  |  | 
6 | Nc1ncc(Br)c(NCC2(CO)CCC2)n1 | > 100 µM (inactive) |  |  | 
7 | CCOC(=O)/C=C(/C=C\COC1CCCCO1)c1ccccc1 (configuration not stated) | 41.1 µM (inactive) |  |  | 
8 | N#Cc1c(-c2ccc(Cl)cc2)c(-c2ccc(Cl)cc2)nn(CCOC(=O)CCC(=O)O)c1=O | 11.9 µM (inactive) | 1.8 µM (inactive) | 1.03 µM (active) | GI50 (DMS-114): 0.931 µM (active); GI50 (DMS-273): 2.08 µM (inactive); GI50 (KM-20L2): 2.28 µM (inactive)
9 | CC(=O)O[C@H]1CC[C@H]2[C@@H]3CCc4cc(O)c(I)cc4[C@H]3CC[C@]12C | 14.8 µM (inactive) |  |  | 
10 | COc1cc(C2C3=C(COC3=O)Oc3cc4c(cc32)OCO4)cc(OC)c1OC (configuration not stated) | 0.245 µM (active) | 0.0269 µM (active) | 0.00718 µM (active) | GI50 (SNB-78): 0.00849 µM (active); GI50 (DMS-114): 0.00962 µM (active); GI50 (DMS-273): 0.01 µM (active); GI50 (KM-20L2): 0.0139 µM (active)
11 | O=C1c2ccccc2C(=O)c2c(O)ccc(O)c21 [QUINIZARIN] |  | 21.8 µM (inactive) | > 100 µM (inactive) | GI50 (SNB-78): > 100 µM (inactive); GI50 (DMS-114): > 100 µM (inactive); GI50 (DMS-273): > 100 µM (inactive)
12 | CC(CN(C)C)C(C#N)(c1ccccc1)c1ccccc1 (configuration not stated) | > 100 µM (inactive) |  |  | 
13 | C=CC1=CSNN1 |  | > 100 µM (inactive) | > 100 µM (inactive) | GI50 (DMS-114): > 100 µM (inactive); GI50 (DMS-273): > 100 µM (inactive); GI50 (KM-20L2): > 100 µM (inactive)
14 | O=C(CCC(NC(=O)OCc1ccccc1)C(=O)OCc1ccccc1)Nc1ccc(OCc2ccccc2)cc1 (configuration not stated) | > 10 µM (inactive) |  |  | 
15 | CC(N1CCOCC1)C(O)(c1ccccc1)c1ccccn1 (configuration not stated) | > 100 µM (inactive) |  |  | 
16 | CCOP(=O)(C[S+](C)[O-])O[C@@H]1C[C@H](C)CC[C@H]1C(C)C (some centres not stated) | 5.25 µM (inactive) |  |  | 
17 | NC(=S)Nc1ccc2c(c1)oc1ccccc12 | > 100 µM (inactive) |  |  | 
18 | COC(=O)C1CC(C=O)=C(SC)N1 (configuration not stated) | > 50 µM (inactive) |  |  | 
19 | CC1=C(c2ccccc2)C(c2ccccc2)=C(c2ccccc2)C2(c3ccccc3)C(=O)C(C)CN12 (configuration not stated) |  | 58.5 µM (inactive) | 43.8 µM (inactive) | GI50 (XF498): 16.9 µM (inactive); GI50 (DMS-273): 46.1 µM (inactive); GI50 (KM-20L2): 45.5 µM (inactive)
20 | O=C1C[C@@H]2[C@@H](CCC23CCCC3)N1 |  | > 100 µM (inactive) | > 100 µM (inactive) | GI50 (SNB-78): > 100 µM (inactive); GI50 (DMS-273): > 100 µM (inactive); GI50 (KM-20L2): > 100 µM (inactive)
21 | O=C1OC(=O)C2C1C1C(c3ccccc3)=C(c3ccccc3)C2(O)C2C(=O)OC(=O)C12 (configuration not stated) |  | > 100 µM (inactive) | 58.3 µM (inactive) | GI50 (SNB-78): 97.7 µM (inactive); GI50 (DMS-114): 28.6 µM (inactive); GI50 (KM-20L2): 91 µM (inactive)
